The values that follow come from patent US11980598B2, “N-(2-(substituted-naphth-1-yl)ethyl) substituted amide compound, preparation and uses thereof” (BEIJING GREATWAY PHARMACEUTICAL TECHNOLOGY CO., LTD., priority 2017, dated 2024).

Data set [1] has as its target CYP1A2 (Homo sapiens (Human), UniProt P05177). As to conditions: cited from earlier work.
The conditions of data set [2]: cited from earlier work.
For data set [3] the following is noted: background statement; cited from earlier work.
The target of data set [4] is CYP2C9 (Homo sapiens (Human), UniProt P11712). The conditions noted are these: first-pass effect of the liver; cited from earlier work.
Chain of CYP2C9 (P11712 whole entry): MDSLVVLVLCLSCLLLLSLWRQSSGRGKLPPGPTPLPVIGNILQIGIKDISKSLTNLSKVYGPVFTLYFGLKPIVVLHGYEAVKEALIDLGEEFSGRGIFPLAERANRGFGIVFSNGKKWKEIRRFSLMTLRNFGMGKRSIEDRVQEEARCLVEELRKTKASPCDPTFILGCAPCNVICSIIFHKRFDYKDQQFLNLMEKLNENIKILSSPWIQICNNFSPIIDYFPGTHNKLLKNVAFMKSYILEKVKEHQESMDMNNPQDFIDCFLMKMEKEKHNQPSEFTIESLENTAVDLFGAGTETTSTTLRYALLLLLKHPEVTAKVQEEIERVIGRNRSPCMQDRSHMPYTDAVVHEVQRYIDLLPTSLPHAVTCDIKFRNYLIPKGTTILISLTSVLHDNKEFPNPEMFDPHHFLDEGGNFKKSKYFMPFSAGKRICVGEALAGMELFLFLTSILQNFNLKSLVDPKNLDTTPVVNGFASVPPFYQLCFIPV
Data set [5] has as its target human MT2 receptor membrane protein (Homo sapiens (Human), UniProt P49286). Briefly: MT2 receptor binding test ([3H]-Melotonin competition). The method, then: (§1) The receptors included a MT1/MT2 receptor and a 5-HT2C receptor. The test was divided into two parts: prescreening and rescreening. The results of prescreening were expressed as the percentage of binding, and the results of rescreening were expressed as the IC50 value (in M, i.e., mol/L).
(§2) (3) Tris-HCl buffer formulation: 50 mM Tris-HCl Buffer, 1 mM EDTA, 5 mM MgCl2, 0.1% NaN3, and then a certain proportion of PMSF was added to make pH 7.4.
(§3) (4) The example compound to be tested was dissolved in DMSO and formulated as a stock solution of 10^−2 M, and then diluted with distilled water to a concentration gradient of […]. The prescreening of the MT receptor binding test was performed at the concentration of 10^−5 M; the prescreening of the 5-HT2C receptor binding test was performed at the concentrations of 10^−5 and 10^−7 M.
(§4) The statistical analysis was performed using GraphPad Prism 5.0 software. The formula for receptor binding test was: inhibition (%)=[(total CPM of binding−CPM of tube with drug)/(total CPM of binding−non-specific CPM)]×100%, wherein CPM was count of a radioactive intensity.
(§5) 10 μL of receptor membrane protein MT1 or MT2 was added to all the tubes. In non-specific binding tubes, 50 μL of a corresponding unlabeled ligand Ago at a concentration of 10^4 M was added to a final concentration of 10 μM, and pre-reacted for 30 minutes. In test tubes, 30 μL of test drug (MT1: a concentration of 10^4-10^−10 M, MT2: a concentration of […]) was added, respectively; all tubes were added with 40 μL [^3H]-Melotonin, respectively. […] The filter paper was taken out and dried by baking, and then placed in a scintillation bottle. 1 mL of the scintillation liquid was added, and the radioactive intensity was measured by a liquid scintillation counter.

Data set [6] deals with human MT1 receptor membrane protein (Homo sapiens (Human), UniProt P48039). Briefly: MT1 receptor binding test ([3H]-Melotonin competition). The method, then:
as §1, §2, §3, §4, §5

In data set [7] the test system is SD rats. Put plainly: Anxiety behavior model of repeatedly administrated rat: Vogel drinking conflict test. Type of data set: in vivo. As to conditions: D18, within 3 minutes. The method, then:
The requirements for test animals, drug formulation and administration were the same as those of the rat chronic mild stress model.
Instruments: Vogel drinking anxiety device for rat and O-maze device for rat were manufactured by Shanghai XinRuan Company. The rat feeding chamber was a home-made white plastic box (60×45×25 cm).
The rats were administrated continuously by i.g. once a day. A novelty-suppressed feeding test, a Vogel drinking conflict test, and an O-maze test were performed on a different day, respectively. Each behavior test was performed at 9:00-12:00, and the administration time was 16:00-17:00. The test process was as follows: D12, novelty-suppressed feeding test (animals were fasted for 48 hours before the test); D18, Vogel drinking conflict test (animals were banned from water for 48 hours before the test); D21, O-maze test.
The Vogel drinking anxiety device for rat connected a drinking tube of a water bottle, an electric grid and a current loop of a controller through the animal body when rat drank water. The controller can automatically record the number of times the animal drank water and can deliver an electric shock to foot sole. The rat was individually placed in the test chamber after 48 hours of water deprivation. When the animal drank 20 times in the test chamber, the controller started timing for 3 minutes, and every 20 times the rat drank, one electric shock to foot sole was delivered (0.35 mA for 2 s). The device automatically recorded the number of times the rat drank water with electric shock within 3 minutes.

Chain of human MT2 receptor membrane protein (P49286 whole entry): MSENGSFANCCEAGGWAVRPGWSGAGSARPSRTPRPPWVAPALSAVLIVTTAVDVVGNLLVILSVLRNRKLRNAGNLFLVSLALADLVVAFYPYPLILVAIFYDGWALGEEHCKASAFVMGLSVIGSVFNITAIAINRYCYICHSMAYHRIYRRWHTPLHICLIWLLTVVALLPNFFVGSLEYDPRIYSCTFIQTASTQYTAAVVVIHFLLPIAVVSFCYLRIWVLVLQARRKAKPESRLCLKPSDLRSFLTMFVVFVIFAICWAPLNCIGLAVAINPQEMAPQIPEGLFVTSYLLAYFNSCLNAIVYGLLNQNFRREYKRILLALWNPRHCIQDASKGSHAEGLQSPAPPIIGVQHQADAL
Chain of human MT1 receptor membrane protein (P48039 whole entry): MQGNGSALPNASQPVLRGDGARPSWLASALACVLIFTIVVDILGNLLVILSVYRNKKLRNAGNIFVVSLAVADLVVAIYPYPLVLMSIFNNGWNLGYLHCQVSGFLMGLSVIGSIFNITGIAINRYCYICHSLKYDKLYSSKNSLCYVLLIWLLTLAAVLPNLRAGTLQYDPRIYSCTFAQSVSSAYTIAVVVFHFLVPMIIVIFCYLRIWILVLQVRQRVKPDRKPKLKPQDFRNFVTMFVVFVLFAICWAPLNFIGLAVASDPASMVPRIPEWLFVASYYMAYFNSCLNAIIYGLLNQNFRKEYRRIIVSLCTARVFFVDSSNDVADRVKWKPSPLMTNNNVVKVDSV
Chain of CYP1A2 (P05177 whole entry): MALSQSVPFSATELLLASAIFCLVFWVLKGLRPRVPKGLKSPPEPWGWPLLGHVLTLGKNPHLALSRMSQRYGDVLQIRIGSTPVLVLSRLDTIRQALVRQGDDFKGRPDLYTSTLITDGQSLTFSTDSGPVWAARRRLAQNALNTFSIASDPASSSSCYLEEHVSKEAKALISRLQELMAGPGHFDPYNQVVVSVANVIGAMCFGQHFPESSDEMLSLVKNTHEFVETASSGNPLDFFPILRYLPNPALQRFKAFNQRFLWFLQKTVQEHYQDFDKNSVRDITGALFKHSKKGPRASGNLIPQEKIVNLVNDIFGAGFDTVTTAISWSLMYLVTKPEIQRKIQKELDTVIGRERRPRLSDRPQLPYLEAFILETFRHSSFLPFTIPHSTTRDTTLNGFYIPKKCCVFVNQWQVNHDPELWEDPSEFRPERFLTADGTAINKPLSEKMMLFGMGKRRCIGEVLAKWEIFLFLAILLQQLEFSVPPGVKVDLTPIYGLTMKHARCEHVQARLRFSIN

Consider `COc1ccc2cccc(CCNC(C)=O)c2c1` [Agomelatine, reference compound], for which the “share metabolized by CYP1A2” value in data set [1] is listed as “about 90%”. In addition, the “patients with an increase in ALT/AST (three times above the normal upper limit)” value in data set [2] is “more than 1%”. Moreover, in data set [3], the absolute bioavailability result is on record as “below 5%” and the oral absorption result is “over 80%”. Further, in data set [4], the “share metabolized by CYP2C9” value is on record as “about 10%”.
One may read the IC50 as the concentration that gives 50% inhibition. Higher therefore signals weaker potency. On to `[2H]C([2H])([2H])Oc1cc2c(CCNC(C)=O)cccc2cc1Cl` [Example 1, N-(2-(6-chloro-7-deuteromethoxy-naphthalen-1-yl)ethyl)acetamide], for which the “MT2 binding ratio (I %)” value in data set [5] (prescreening, 10^−5 M) is listed as 98%. Moreover, the IC50 came out at 0.72 ± 0.13 nM in data set [5] (rescreening) and 0.45 ± 0.26 nM in data set [6] (rescreening). Moreover, in data set [6] (prescreening, 10^−5 M), the “MT1 binding ratio (I %)” value worked out at 84%. Further, the “Number of times drinking water with electric shock (s)” value in data set [7] (5 mg/kg i.g. once a day) is 76 ± 11 number of licks (count); in data set [7] (10 mg/kg i.g. once a day), 159 ± 14 number of licks (count); in data set [7] (20 mg/kg i.g. once a day), 172 ± 25 number of licks (count); in data set [7] (40 mg/kg i.g. once a day), 213 ± 20 number of licks (count).
